Assay results published in US8202893B2, “Cannabinergic lipid ligands” (University of Connecticut, priority 2004, dated 2012).
Where two headings read alike, the source gives them in different places.

Columns and labels:
[1] = target: T1, CB1 cannabinoid receptor (Rattus norvegicus, UniProt P20272); assay: CB1 receptor binding, [3H]CP-55,940 displacement; conditions: rat forebrain membranes
T1 construct: membranes were prepared from rat forebrain membranes; from tissue; host or cells: rat forebrain
Description: Some inventive analogs were tested for CB2 receptor binding affinity and for CB1 receptor affinity (to determine selectivity). […] The lower the Ki value, the higher the binding affinity. […] For the CB1 receptor binding studies, membranes were prepared from rat forebrain membranes according to the procedure of P. R. Dodd et al, A Rapid Method for Preparing Synaptosomes: Comparison with Alternative Procedures, Brain Res., 107-118 (1981). The binding of the novel analogues to the CB1 cannabinoid receptor was assessed as described in W. A. Devane et al, Determination and Characterization of a Cannabinoid Receptor in a Rat Brain, Mol. Pharmacol., 34, 605-613 (1988) and A. Charalambous et al, 5′-azido Δ^8-THC: A Novel Photoaffinity Label for the Cannabinoid Receptor, J. Med. Chem., 35, 3076-3079 (1992) with the following changes. The above articles are incorporated by reference herein.
Membranes, previously frozen at −80° C., were thawed on ice. To the stirred suspension was added three volumes of TME (25 mM Tris-HCl buffer, 5 mM MgCl2 and 1 mM EDTA) at a pH 7.4. The suspension was incubated at 4° C. for 30 min. At the end of the incubation, the membranes were pelleted and washed three times with TME.
(§1) The treated membranes were subsequently used in the binding assay described below. Approximately 30 μg of membranes were incubated in silanized 96-well microtiter plate with TME containing 0.1% essentially fatty acid-free bovine serum albumin (BSA), 0.8 nM [^3H] CP-55,940, and various concentrations of test materials in a final volume of 200 μL. The assays were incubated for 1 hour at 30° C. and then immediately filtered using Packard Filtermate 196 harvester and Whatman GF/C filterplates and washed with wash buffer (TME) containing 0.5% BSA. Radioactivity was detected using MicroScint 20 scintillation cocktail added directly to the dried filterplates, and the filterplates were counted using a Packard Instruments Top-Count. Nonspecific binding was assessed using 100 nM CP-55,940. Data collected from three independent experiments performed with duplicate determinations was normalized between 100% and 0% specific binding for [^3H] CP-55,940, determined using buffer and 100 nM CP-55,940. The normalized data was analyzed using a 4-parameter nonlinear logistic equation to yield IC50 values.

[2] = tested on: anandamide transporter; assay: [3H]Anandamide transporter competition assay; assay type: cell-based; conditions: human CCF-STG1 astrocytoma cells, 10 nM [3H]anandamide
Description: Human CCF-STG1 astrocytoma cells (American Type Culture collection) were grown in RPMI1640 culture medium containing 2 mM L-glutamine, 4.5 g/L glucose, 10 mM HEPES, and 1.0 mM sodium pyruvate, 10% FBS, cultures at 37° C. with 5% CO2. For standard competition assays, confluent cells grown in 24-well plates were rinsed and preincubated for 10 min at 37° C. in assay buffer (Hank's Balanced Salt Solution containing 0.1% DMSO, 10 mM HEPES) plus test compounds (at their final concentrations of 0.01-100 μM). After having discarded the preincubation media, the cells were incubated for 4 min in 0.2 ml assay buffer containing 10 nM [^3H] anandamide (137.6 Ci/mmol, New England Nuclear) plus test compounds. Reactions were stopped by removing the incubation media and rinsing the cells three times with 0.5 ml of ice-cold HBSS buffer containing 0.1% fatty acid-free Bovine Serum Albumin (sigma). Radioactive material in Triton X-100 cell extracts was measured by liquid scintillation counting. A minimum of three independent experiments conducted in six replicates was used to define the concentration needed to produce half-maximal inhibition (IC50) for each compound. IC50 values were obtained by nonlinear regression fitting of the data, using the PRIZM software package. Data are expressed as mean±SEM.

[3] = target: T2, Mag-lipase (Rattus norvegicus, UniProt Q8R431); assay: Inhibition of MAG-lipase: 2-AG metabolism to arachidonic acid; assay type: biochemical; conditions: 30 nmoles compound with 30 nmoles 2-AG, 30 μg enzyme, 300 μL, 20 min
T2 construct: supernatant from final spin in the anandamide amidase preparation; from tissue; host or cells: supernatant (soluble fraction) of the anandamide amidase preparation, rat brain by the cited procedure
T2 sequence (Q8R431 1-303): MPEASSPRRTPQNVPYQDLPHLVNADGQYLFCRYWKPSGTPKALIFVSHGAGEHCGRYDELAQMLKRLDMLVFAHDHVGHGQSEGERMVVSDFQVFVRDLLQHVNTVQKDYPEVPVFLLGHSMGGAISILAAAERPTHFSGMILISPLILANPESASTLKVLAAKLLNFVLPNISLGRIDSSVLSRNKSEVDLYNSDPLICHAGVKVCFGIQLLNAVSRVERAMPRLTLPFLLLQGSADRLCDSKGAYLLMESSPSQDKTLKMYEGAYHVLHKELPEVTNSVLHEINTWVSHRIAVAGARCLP
Description: (§2) All compound solutions were made to a concentration of 10 mM in DMSO. Three tests were performed on each compound: hydrolysis, to determine the stability of the compound in assay conditions without the enzyme present; metabolism, to determine the stability of the compound with the enzyme present; and inhibition of 2-Arachidonoyl glycerol (native substrate) metabolism to arachidonic acid.
(§3) The inhibition of 2-AG metabolism was measured by mixing 30 nmoles of the compound with 30 nmoles 2-AG, and 30 μg enzyme preparation in TME buffer (final volume of 300 μL). Again the reaction mixture was treated in the same manner as described above and the concentrations of 2-AG and AA were calculated using external standards. Percent inhibition was calculated using the following equation: % Inhib.=(AA20-AA0)i/(AA20-AA0)s where (AA20-AA0)i is the amount of arachidonic acid formed over 20 minutes from 2-AG with the inhibitor present and (AA20-AA0)s is the amount of arachidonic acid formed over 20 minutes from 2-AG when the inhibitor is not present. […] The reaction mixtures were treated as described above and the amount of AA formed was calculated. The software package GraphPad Prism was utilized to calculate IC50 and Ki. HPLC Conditions:
(§4) Chromatographic separation was achieved using an Ultrasphere ODS Pre-column (4.6×45 mm) from Beckman. Hardware consisted of a Waters Millennium HPLC system with a 20 μL injection loop. The mobile phase consisted of 8.5% o-phosphoric acid:acetonitrile (3:7), run isocratically at a rate of 1 mL/min and detection at 204 nm. The total run time was 8 minutes with 2-AG eluting at 3.0 minutes and AA at 6.0 minutes.

[4] = target: T3, CB2 receptor (Mus musculus, UniProt P47936); assay: CB2 receptor binding, [3H]CP-55,940 displacement; conditions: mouse spleen membranes
T3 construct: membranes were prepared from frozen mouse spleen; from tissue; host or cells: mouse spleen
Description: as §1
For the CB2 receptor binding studies, membranes were prepared from frozen mouse spleen essentially according to the procedure of P. R. Dodd et al, A Rapid Method for Preparing Synaptosomes: Comparison with Alternative Procedures, Brain Res., 226, 107-118 (1981) which is incorporated by reference herein. Silanized centrifuge tubes were used throughout to minimize receptor loss due to adsorption. The CB2 binding assay was conducted in the same manner as for the CB1 binding assay. The binding affinities (Ki) were also expressed in nanomoles (nM).

[5] = target: T4, FAAH (fatty acid amide hydrolase) (Rattus norvegicus, UniProt P97612); assay: FAAH screening: inhibition of anandamide metabolism to arachidonic acid; assay type: biochemical; conditions: 25 nmoles compound with 25 nmoles AEA, 75 μg enzyme, 250 μL, 15 min
T4 construct: Anandamide Amidase Activity in Rat Brain Microsomes; from tissue; host or cells: rat brain microsomes (by the cited procedure)
T4 sequence (P97612 1-579): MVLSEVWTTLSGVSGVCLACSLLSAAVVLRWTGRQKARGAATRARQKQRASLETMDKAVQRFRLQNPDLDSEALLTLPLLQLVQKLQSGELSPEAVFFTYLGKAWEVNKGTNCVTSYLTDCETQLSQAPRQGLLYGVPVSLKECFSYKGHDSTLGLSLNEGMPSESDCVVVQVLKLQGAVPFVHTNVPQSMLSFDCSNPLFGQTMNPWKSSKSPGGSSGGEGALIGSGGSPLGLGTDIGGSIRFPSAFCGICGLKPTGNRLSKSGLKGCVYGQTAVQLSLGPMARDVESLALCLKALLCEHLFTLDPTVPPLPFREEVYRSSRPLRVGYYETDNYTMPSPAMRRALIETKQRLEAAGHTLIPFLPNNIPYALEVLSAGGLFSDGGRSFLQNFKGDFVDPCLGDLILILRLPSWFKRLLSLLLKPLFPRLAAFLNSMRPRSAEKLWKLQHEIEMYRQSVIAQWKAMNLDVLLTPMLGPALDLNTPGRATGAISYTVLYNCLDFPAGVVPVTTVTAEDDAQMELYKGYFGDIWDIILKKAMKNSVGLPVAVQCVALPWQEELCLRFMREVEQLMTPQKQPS
Description: The FAAH (fatty acid amide hydrolase) enzyme preparation was obtained according to the procedure of Lang and Makriyannis et al High Performance Liquid Chromatographic Determination of Anandamide Amidase Activity in Rat Brain Microsomes, Analytical Biochemistry (238): 40-45, 1996.
as §2, with “anandamide” for “2-Arachidonoyl glycerol”
as §3, with “Again” for “The inhibition of 2-AG metabolism was measured by mixing 30 nmoles of the compound with 30 nmoles 2-AG, and 30 μg enzyme preparation in TME buffer (final volume of 300 μL). Again”, “AEA” for “2-AG”, “Inhib.=(AA15-AA0)i/(AA15-AA0)s” for “Inhib.=(AA20-AA0)i/(AA20-AA0)s”, “(AA15-AA0)c” for “(AA20-AA0)i”, “15” for “20”, “(AA15-AA0)s” for “(AA20-AA0)s”
as §4, with “AEA” for “2-AG”, “2.2” for “3.0”

[6] = with PMSF (second value of cell), read-out: Ki CB1 (nM) (o/w PMSFQ)
[7] = without PMSF (first value of cell), read-out: Ki CB1 (nM) (o/w PMSFQ)
[8] = with PMSF (second value of cell), read-out: Ki CB1 (nM) (o/w PMSF)
[9] = without PMSF (first value of cell), read-out: Ki CB1 (nM) (o/w PMSF)

T1 sequence (P20272 whole entry): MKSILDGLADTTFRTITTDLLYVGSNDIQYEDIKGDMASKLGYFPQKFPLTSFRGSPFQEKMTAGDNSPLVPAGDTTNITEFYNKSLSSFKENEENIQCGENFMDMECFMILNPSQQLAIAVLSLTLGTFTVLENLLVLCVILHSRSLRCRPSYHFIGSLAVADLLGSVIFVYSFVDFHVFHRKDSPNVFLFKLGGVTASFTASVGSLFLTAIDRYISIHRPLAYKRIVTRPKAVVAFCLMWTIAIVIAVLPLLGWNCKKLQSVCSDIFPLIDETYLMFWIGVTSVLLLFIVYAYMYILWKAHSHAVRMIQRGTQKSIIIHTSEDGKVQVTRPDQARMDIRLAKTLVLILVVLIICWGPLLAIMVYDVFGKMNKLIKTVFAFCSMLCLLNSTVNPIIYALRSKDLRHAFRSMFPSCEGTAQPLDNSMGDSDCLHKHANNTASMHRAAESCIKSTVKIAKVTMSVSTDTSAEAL
T3 sequence (P47936 whole entry): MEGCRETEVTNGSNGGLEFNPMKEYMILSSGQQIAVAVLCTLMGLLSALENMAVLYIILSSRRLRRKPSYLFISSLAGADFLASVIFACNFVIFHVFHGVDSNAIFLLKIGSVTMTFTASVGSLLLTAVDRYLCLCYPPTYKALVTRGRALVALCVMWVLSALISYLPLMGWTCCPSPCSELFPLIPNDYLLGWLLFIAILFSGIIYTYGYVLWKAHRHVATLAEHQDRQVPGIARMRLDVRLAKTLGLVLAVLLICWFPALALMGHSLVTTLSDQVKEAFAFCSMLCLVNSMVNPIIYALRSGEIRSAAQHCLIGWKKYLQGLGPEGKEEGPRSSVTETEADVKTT

| Structure (SMILES) | Ki [1, 6] [nM] | Ki [1, 7] [nM] | IC50 ([2]; read-out: IC50 AT inhibition) [µM] | Mag-Lipase % Inhibition [3] [%] | Ki [4] [nM] | Ki [1, 8] [nM] | Ki [1, 9] [nM] | FAAH % Inhibition [5] [%] | IC50 ([2]; read-out: IC50 (AT inhib.)) [µM] | inhibition at 100 µM [3] [%] |
| --- | --- | --- | --- | --- | --- | --- | --- | --- | --- | --- |
| CCCCCN(C)C/C=C\C/C=C\C/C=C\C/C=C\CCCCNC(=O)c1ccc(O)cc1 [Compound A26] | 2150 | 4720 | 5.4 | 9.8 | 2910 |  |  |  |  |  |
| CCCCCN(C)C/C=C\C/C=C\C/C=C\C/C=C\CCCCNC(=O)c1ccc(O)cc1 [Compound A27] | 1620 | 2220 | 7.1 | 4.2 | 2560 |  |  |  |  |  |
| CCCCCC=CCC=CCC=CCC=CCCCCOC(=O)NCC(C)O (stereo not shown) [Compound B4] |  |  |  |  | 254 | 320 | 338 | 7 | 0.4 |  |
| CCCCC/C=C\C/C=C\C/C=C\C/C=C\CCCCOC(=O)NC(C)C [Compound B5] |  |  |  |  | 543 | 343 | 510 | 4.5 | 21.9 |  |
| CCCCC/C=C\C/C=C\C/C=C\C/C=C\CCCCOC(=O)Nc1ccc(O)cc1 [Compound B9] |  |  |  |  | 533 | 3300 | 5390 | 27.3 | 6.6 |  |
| CCCCC/C=C\C/C=C\C/C=C\C/C=C\CCCCOC(=O)NC1=NCCS1 [Compound B10] |  |  |  | 34.0 |  |  |  |  | 8.6 |  |
| CCCCC/C=C\C/C=C\C/C=C\C/C=C\CCCCOC(=O)Nc1cccnc1 [Compound B11] |  |  |  |  | 185 | 96.4 | 302 |  | 16.1 | 16.8 |
| CCCCCCCCC=CCCCCCCCCOC(=O)NCC(C)O (stereo not shown) [Compound B13] |  |  |  | 13.1 | 2600 | 2240 | 4750 |  | 5.92 |  |
